For experiment [1], the target named is activated p38α (Homo sapiens, UniProt Q16539). Put plainly: Kinase assay (p38α, ATF2 substrate, ELISA read-out). Format: biochemical. The conditions noted are these: Table 1; for IC50: 100 μM ATP, 10 ng activated p38α, read-out: Kinase assay IC50. As to the method: At 37° C., microtiter plates were coated with 50 μl of ATF2 solution ([…]) for one hour. The plates were washed three times with water, and 50 μl of kinase mixture (50 mM tris-HCl, 10 mM MgCl2, 10 mM β-glycerol phosphate, 10 μg/ml BSA, 1 mM DTT, 100 μM ATP, 100 μM Na3VO4, 10 ng of activated p38α) with or without inhibitor were then added into the wells, and the plates were incubated at 37° C. for 1 hour. The plates were washed three times and then incubated at 37° C. with phosphorus-ATF-2 antibodies for one hour. Once more, the plates were washed three times, and goat-anti-rabbit IgG labeled with alkaline phosphatase was then added at 37° C. for one hour (to immobilize antibody-phosphorylated protein-substrate complex). After washing three times, the alkaline phosphatase-substrate solution (3 mM 4-NPP, 50 mM NaHCO3, 50 mM MgCl2, 100 μl/well) was added at 37° C. for 1.5 hours. The formation of 4-nitrophenolate was measured at 405 nm using a microtiter plate reader. The IC50 values were calculated.
A general note: ELISA stands for enzyme-linked immunosorbent assay.

The test system of experiment [2] is IL-1β. Put plainly: In vitro test of cytokine release, LPS-stimulated human whole blood / PBMCs: IL-1β. Format: cell-based. As to conditions: PBMC, LPS stimulation, ELISA, read-out: Cytokines IC50 IL-1β. As to the method:
(§1) The compounds or compositions according to the invention can be administered to mammals (man or animal) in a dose of from about 0.5 mg to 100 mg per kg of body weight per day. They may be administered in one individual dose or in a plurality of doses. The activity spectrum of the compounds as inhibitors of cytokine release was examined using the test systems below, as described by C. Donat and S. Laufer in Arch. Pharm. Pharm. Med. Chem. 333, Suppl. 1, 1-40, 2000.
(§2) In vitro Test with Human Whole Blood
(§3) The test substance is added to samples of human potassium-EDTA whole blood (of 400 μl each) and the samples are preincubated in a CO2 incubator (5% CO2; 95% moisture-saturated air) at 37° C. for 15 min. The samples are then stimulated with 1 μg/ml of LPS (E. coli 026:B6) at 37° C. in a CO2 incubator (5% CO2; 95% moisture-saturated air) for 4 hours. The reaction is stopped by placing the samples on ice, adding DPBS buffer and then centrifuging at 1000*g for 15 min. The amount of IL-1β and TNFα in the plasma supernatant is then determined by ELISA.
(§4) 1) The mononuclear cells (PBMCs) from human potassium-EDTA whole blood, diluted 1:3, are isolated by density gradient centrifugation (Histopaque®-1.077). The cells are washed twice with DPBS buffer, resuspended in macrophage SFM medium and adjusted to a cell count of 1*10^6 cells/ml.
(§5) The resulting PBMCs suspension (samples of in each case 390 μl) and the test substance are preincubated at 37° C. in a CO2 incubator (5% CO2; 95% moisture-saturated air) for 15 min. The samples are then stimulated with in each case […] of LPS (E. coli 026:B6) at 37° C. in a CO2 incubator (5% CO2; 95% moisture-saturated air) for 4 hours. The reaction is stopped by placing the samples on ice, adding DPBS buffer and then centrifuging at 15 880*g for 12 min. The amount of IL-1β and TNFα in the plasma supernatant is then determined by ELISA.

Experiment [3] relates to TNFα. Put plainly: In vitro test of cytokine release, LPS-stimulated human whole blood / PBMCs: TNFα. The format is cell-based. The conditions noted are these: LPS stimulation, ELISA; for IC50: Homo sapiens, PBMC, read-out: Cytokines IC50 TNF α. As to the method: as §1, §2, §3, §4, §5

The results in this text go back to patent US7442713B2, “2-thio-substituted imidazole derivatives and their use in pharmaceutics” (Merckle GmbH, priority 2002, dated 2008).

Sequence of activated p38α (Q16539 whole entry): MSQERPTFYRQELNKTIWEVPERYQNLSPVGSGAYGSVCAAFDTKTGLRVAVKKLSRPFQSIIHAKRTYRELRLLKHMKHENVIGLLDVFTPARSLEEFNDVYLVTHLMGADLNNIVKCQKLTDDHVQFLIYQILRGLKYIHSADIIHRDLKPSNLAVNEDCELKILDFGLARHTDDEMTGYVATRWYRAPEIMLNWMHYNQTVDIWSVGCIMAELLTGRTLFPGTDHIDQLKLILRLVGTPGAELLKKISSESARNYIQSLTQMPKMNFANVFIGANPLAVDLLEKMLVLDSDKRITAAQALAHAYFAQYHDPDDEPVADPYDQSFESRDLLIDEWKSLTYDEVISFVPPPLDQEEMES

Usually IC50 stands for the concentration that inhibits the measured activity by half. Take `O=C1c2ccccc2C(=O)N1CCCSc1nc(-c2ccc(F)cc2)c(-c2ccncc2)[nH]1` [Example 25d, 5-(4-Fluorophenyl)-4-(4-pyridinyl)imidazole-2-thio-3-propyl-N-phthalimide]: the results for the half-inhibitory concentration (IC50) in experiment [1] and in experiment [2] were 5500 nM and 920 nM, respectively.
Take `CC(=O)CSc1nc(-c2ccc(F)cc2)c(-c2ccncc2)n1C` [Example 26, 1-[4-(4-Fluorophenyl)-1-methyl-5-pyridin-4-yl-1H-imidazol-2-ylsulfanyl]propan-2-one]: the “Kinase assay % at 10^−5 mol/l” value in experiment [1] stood at 37.0% at10^−5 mol/l. For the same molecule, the IC50 in experiment [2] was 83 nM.
For the molecule `CCOC(=O)C(Sc1nc(-c2ccc(F)cc2)c(-c2ccncc2)[nH]1)C(=O)OCC` [Example 22, Diethyl 5-(4-fluorophenyl)-4-(4-pyridinyl)imidazole-2-thio-2-malonate], the values for the concentration for half-maximal inhibition (IC50) in experiment [3] and in experiment [2] were 360 nM and 540 nM, respectively.
As for `CN(C)C(=O)CSc1nc(-c2ccc(F)cc2)c(-c2ccncc2)n1C` [Example 27, 1-[4-(4-Fluorophenyl)-1-methyl-5-pyridin-4-yl-1H-imidazol-2-ylsulfanyl]-N,N-dimethylacetamide], the “Kinase assay % at 10^−5 mol/l” value in experiment [1] was determined as 29.0% at10^−5 mol/l. Moreover, the half-maximal inhibitory concentration (IC50) was found to be 3000 nM in experiment [3] and 150 nM in experiment [2].
Consider `O=C1OCCC1Sc1nc(-c2ccc(F)cc2)c(-c2ccncc2)[nH]1` (stereo not drawn) [Example 23, 5-(4-Fluorophenyl)-4-(4-pyridinyl)imidazole-2-thio-3-butyrolactone], for which the half-inhibitory concentration (IC50) in experiment [3] was determined as 3800 nM; in experiment [2], 190 nM.
With `COC(=O)CCCSc1nc(-c2ccc(F)cc2)c(-c2ccncc2)[nH]1` [Example 25a, Methyl 5-(4-fluorophenyl)-4-(4-pyridinyl)imidazole-2-thio-4-butyrate], the “Cytokines TNF α % at 10^−5 mol/l” value in experiment [3] is reported as 38% at10^−5 mol/l. For the same molecule, in experiment [2], the half-maximal inhibitory concentration (IC50) turned out to be 750 nM.
On to `COC(=O)CSc1nc(-c2ccc(F)cc2)c(-c2ccncc2)[nH]1` [Example 25c, Methyl 5-(4-fluorophenyl)-4-(4-pyridinyl)imidazole-2-thio-2-acetate], for which the IC50 was 750 nM in experiment [1], 2100 nM in experiment [3] and 320 nM in experiment [2].
The corresponding values for `CCOC(=O)CSc1nc(-c2ccc(F)cc2)c(-c2ccncc2)[nH]1` [Example 25e, Ethyl 5-(4-fluorophenyl)-4-(4-pyridinyl)imidazole-2-thio-2-acetate] are 975 nM, 9500 nM and 700 nM.
For `COC(=O)/C=C/CSc1nc(-c2ccc(F)cc2)c(-c2ccncc2)[nH]1` [Example 25b, Methyl 5-(4-fluorophenyl)-4-(4-pyridinyl)imidazole-2-thio-4-crotonate], the IC50 in experiment [3] came out at 1100 nM; in experiment [2], 650 nM.
In the same order, the values of `OCC(O)CSc1nc(-c2ccc(F)cc2)c(-c2ccncc2)[nH]1` (stereo not drawn) [Example 21, 5-(4-Fluorophenyl)-4-(4-pyridinyl)imidazole-2-thio-1-propane-2,3-diol] are 900 nM and 150 nM.
The corresponding values for `O=C(O)C(CCO)Sc1nc(-c2ccc(F)cc2)c(-c2ccncc2)[nH]1` (stereo not drawn) [Example 24, 5-(4-Fluorophenyl)-4-(4-pyridinyl)imidazole-2-thio-2-butanoic acid-4-ol] are 3800 nM and 140 nM.
As to `COC(=O)CCCCSc1nc(-c2ccc(F)cc2)c(-c2ccncc2)[nH]1` [Example 25, Methyl 5-(4-fluorophenyl)-4-(4-pyridinyl)imidazole-2-thio-5-valerate], the “Cytokines TNF α % at 10^−5 mol/l” value in experiment [3] is recorded as 28% at10^−5 mol/l. Moreover, the concentration for half-maximal inhibition (IC50) in experiment [2] was 1450 nM.
